Experimental data from ChEMBL document CHEMBL2407027, “(3R,4S,5R,6R,7S)-3,4,5,7-Tetrahydroxyconidine, an azetidine analogue of 6,7-diepicastanospermine and a conformationally constrained d-deoxyaltronojirimycin, from l-arabinose” (Bioorg Med Chem, 2013).

Assays:
[1] = Inhibition of almond beta-glucosidase; parameters: species or system Prunus dulcis
Alpha-glucosidase = target: T1, Alpha-glucosidase (Aspergillus niger, UniProt P56526); assay: Inhibition of Aspergillus niger alpha-glucosidase
T1 sequence (P56526 whole entry): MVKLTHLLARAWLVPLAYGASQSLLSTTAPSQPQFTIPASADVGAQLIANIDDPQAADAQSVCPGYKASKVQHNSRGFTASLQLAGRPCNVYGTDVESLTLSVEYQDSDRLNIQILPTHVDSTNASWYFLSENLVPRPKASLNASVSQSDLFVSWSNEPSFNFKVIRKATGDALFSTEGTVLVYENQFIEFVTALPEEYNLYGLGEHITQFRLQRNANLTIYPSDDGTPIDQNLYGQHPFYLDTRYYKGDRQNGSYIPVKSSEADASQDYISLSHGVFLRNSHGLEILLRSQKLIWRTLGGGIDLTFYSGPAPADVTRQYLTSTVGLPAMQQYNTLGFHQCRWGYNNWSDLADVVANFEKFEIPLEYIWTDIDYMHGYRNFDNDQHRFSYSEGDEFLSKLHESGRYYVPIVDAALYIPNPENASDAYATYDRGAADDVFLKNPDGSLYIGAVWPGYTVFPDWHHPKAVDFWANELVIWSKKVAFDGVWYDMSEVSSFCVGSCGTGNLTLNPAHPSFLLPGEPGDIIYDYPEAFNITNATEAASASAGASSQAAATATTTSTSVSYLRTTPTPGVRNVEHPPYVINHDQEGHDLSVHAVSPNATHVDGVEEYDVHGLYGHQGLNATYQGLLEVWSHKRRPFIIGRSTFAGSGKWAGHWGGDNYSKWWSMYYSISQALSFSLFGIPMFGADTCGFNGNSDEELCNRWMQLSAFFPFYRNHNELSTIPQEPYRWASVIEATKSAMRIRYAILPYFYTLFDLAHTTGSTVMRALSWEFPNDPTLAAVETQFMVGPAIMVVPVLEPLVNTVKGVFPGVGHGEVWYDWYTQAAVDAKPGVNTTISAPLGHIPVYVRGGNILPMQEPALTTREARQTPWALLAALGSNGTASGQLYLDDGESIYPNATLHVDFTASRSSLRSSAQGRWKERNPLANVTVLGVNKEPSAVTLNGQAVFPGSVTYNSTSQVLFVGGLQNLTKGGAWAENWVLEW

[2] = target: T2, Beta-glucuronidase (Bos taurus) (UniProt A3KMY8); assay: Inhibition of bovine liver beta-glucuronidase at 1000 uM
T2 sequence (whole entry): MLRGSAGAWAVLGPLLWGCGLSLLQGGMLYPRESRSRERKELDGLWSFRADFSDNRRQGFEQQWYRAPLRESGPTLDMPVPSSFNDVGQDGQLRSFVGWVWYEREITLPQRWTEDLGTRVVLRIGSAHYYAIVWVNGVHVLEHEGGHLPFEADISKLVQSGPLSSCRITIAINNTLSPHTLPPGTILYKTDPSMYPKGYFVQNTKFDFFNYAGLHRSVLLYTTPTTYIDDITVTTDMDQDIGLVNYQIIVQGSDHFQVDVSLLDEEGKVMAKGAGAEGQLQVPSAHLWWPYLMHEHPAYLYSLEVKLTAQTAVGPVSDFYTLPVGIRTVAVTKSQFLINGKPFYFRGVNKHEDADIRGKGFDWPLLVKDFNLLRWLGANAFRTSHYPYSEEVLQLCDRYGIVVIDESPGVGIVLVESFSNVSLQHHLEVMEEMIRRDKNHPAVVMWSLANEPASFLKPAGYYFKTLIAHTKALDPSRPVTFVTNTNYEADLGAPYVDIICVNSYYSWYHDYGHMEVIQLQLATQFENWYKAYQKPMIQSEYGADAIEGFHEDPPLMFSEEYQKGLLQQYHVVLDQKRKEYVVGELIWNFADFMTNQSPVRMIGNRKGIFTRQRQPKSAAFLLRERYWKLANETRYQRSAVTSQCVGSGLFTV

Escherichia coli = assay: Inhibition of Escherichia coli beta-glucuronidase at 1000 uM
[3] = Inhibition of rhizopus amyloglucosidase
[4] = Inhibition of Penicillium decumbens alpha-L-rhamnosidase
Aspergillus niger [5] = assay: Inhibition of Aspergillus niger beta-glucosidase at 1000 uM
Sus scrofa = species on record: Sus scrofa; assay: Inhibition of porcine kidney alpha,alpha-trehalase at 1000 uM
Saccharomyces cerevisiae = assay: Inhibition of yeast alpha-glucosidase at 1000 uM
[6] = Inhibition of Aspergillus niger amyloglucosidase
[7] = target: T3, Tissue alpha-L-fucosidase (Bos taurus) (UniProt Q2KIM0); assay: Inhibition of bovine alpha-L-fucosidase at 1000 uM
T3 sequence (whole entry): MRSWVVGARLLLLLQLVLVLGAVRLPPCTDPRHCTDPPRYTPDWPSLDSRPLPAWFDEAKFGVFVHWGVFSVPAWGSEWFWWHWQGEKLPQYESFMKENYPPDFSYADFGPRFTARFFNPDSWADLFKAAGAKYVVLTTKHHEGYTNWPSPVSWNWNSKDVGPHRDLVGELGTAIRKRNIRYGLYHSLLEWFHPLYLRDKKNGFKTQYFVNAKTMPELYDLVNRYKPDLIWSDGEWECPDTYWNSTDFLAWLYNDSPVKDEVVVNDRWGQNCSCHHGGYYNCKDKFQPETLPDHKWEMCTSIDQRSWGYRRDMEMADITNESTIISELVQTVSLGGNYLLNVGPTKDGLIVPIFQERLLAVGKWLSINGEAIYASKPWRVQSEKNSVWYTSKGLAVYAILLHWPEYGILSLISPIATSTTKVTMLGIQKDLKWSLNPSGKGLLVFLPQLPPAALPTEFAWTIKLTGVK

Helix pomatia = assay: Inhibition of snail beta-mannosidase at 1000 uM
[8] = Inhibition of rat intestinal alpha-glucosidase
Oryza sativa = assay: Inhibition of rice alpha-glucosidase at 1000 uM
Coffea = assay: Inhibition of coffee beans alpha-galactosidase at 1000 uM
[9] = target: T4, Beta-galactosidase (Bos taurus) (UniProt Q58D55); assay: Inhibition of bovine liver beta-galactosidase at 1000 uM
T4 sequence (whole entry): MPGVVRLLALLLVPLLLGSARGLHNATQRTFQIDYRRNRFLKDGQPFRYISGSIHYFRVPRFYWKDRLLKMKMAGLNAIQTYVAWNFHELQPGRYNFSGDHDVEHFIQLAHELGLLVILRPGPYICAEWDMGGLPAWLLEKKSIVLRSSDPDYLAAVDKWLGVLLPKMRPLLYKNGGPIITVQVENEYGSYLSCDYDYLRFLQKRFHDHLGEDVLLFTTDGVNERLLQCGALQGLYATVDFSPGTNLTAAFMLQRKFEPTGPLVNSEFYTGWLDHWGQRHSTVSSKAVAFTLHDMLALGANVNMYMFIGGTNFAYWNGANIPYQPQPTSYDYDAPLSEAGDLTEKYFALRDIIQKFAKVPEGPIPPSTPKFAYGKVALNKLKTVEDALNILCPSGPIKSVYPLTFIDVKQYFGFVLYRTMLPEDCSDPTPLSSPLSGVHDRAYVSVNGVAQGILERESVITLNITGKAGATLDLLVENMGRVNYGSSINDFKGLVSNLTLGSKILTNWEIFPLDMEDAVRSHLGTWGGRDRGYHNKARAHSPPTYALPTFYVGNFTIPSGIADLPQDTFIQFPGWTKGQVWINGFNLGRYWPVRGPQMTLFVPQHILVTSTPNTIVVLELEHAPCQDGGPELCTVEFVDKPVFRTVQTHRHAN

[10] = Inhibition of rat beta-galactosidase
[11] = target: T5, Alpha-glucosidase (Aspergillus niger) (UniProt P56526); assay: Inhibition of Aspergillus niger alpha-glucosidase at 1000 uM
T5 sequence (whole entry): T1 sequence (P56526 whole entry)

Rattus norvegicus [12] = species on record: Rattus norvegicus; assay: Inhibition of rat intestinal beta-galactosidase at 1000 uM
Penicillium decumbens = assay: Inhibition of Penicillium decumbens alpha-L-rhamnosidase at 1000 uM
Rattus norvegicus [13] = species on record: Rattus norvegicus; assay: Inhibition of rat intestinal alpha-glucosidase at 1000 uM
Prunus dulcis = assay: Inhibition of almond beta-glucosidase at 1000 uM
[14] = target: T6, Glucosylceramidase (Bos taurus) (UniProt Q2KHZ8); assay: Inhibition of bovine liver beta-glucosidase at 1000 uM
T6 sequence (whole entry): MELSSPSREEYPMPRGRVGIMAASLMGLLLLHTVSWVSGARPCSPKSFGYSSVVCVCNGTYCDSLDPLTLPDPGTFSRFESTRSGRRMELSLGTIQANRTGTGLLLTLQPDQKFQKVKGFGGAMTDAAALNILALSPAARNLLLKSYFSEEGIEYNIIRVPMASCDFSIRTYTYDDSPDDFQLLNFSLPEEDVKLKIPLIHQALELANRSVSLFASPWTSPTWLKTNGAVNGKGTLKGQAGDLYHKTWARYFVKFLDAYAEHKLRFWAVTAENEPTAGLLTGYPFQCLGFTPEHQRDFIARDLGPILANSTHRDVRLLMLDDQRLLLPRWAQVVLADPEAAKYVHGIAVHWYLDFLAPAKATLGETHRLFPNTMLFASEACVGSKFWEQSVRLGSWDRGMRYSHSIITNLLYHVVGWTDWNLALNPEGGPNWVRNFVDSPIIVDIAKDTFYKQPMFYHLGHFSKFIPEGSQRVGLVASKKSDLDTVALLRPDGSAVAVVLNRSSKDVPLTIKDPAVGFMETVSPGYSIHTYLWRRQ

Aspergillus niger [15] = assay: Inhibition of Aspergillus niger amyloglucosidase at 1000 uM
Rhizopus = assay: Inhibition of rhizopus amyloglucosidase at 1000 uM
[16] = target: T7, Tissue alpha-L-fucosidase (Bos taurus, UniProt Q2KIM0); assay: Inhibition of bovine alpha-L-fucosidase
T7 sequence (Q2KIM0 whole entry): T3 sequence (whole entry)

SMILES | inhibition [2] | inhibition (Escherichia coli) | IC50 [3] | inhibition (Aspergillus niger [5]) | inhibition (Sus scrofa) | inhibition (Saccharomyces cerevisiae) | IC50 [6] | inhibition [7] | inhibition (Helix pomatia) | inhibition (Oryza sativa) | inhibition (Coffea) | inhibition [9] | inhibition [11] | inhibition (Rattus norvegicus [12]) | inhibition (Penicillium decumbens) | inhibition (Rattus norvegicus [13]) | inhibition (Prunus dulcis) | inhibition [14] | inhibition (Aspergillus niger [15]) | also measured
OC[C@H](O)[C@@H]1NC[C@@H]1O | 7.4% | 0% | 19 µM | 0.4% | 5.8% | 16% | 105 µM | 4.6% | 0% | 12.1% | 7.6% | 25.2% | – | – | – | – | – | – | – | IC50 [1]: 347 µM; IC50 (Alpha-glucosidase): 39 µM; IC50 [4]: 634 µM; IC50 [8]: 607 µM; IC50 [10]: 70 µM
O=C1CC[C@H](O)[C@H]2[C@@H](O)CN12 | 4.2% | 8.9% | – | 1.2% | 5.2% | 3.1% | – | 0% | 0% | 2.7% | 0% | 13.4% | 0% | 0% | 11.1% | 25.2% | 0% | 14.9% | 3% | inhibition (Rhizopus): 3.8%
O[C@H]1[C@H](O)CN2CCCC[C@H]12 [(-)-LENTIGINOSINE] | – | – | – | – | – | – | 32 µM | – | – | – | – | – | – | – | – | – | – | – | – | –
O[C@@H]1[C@H](O)[C@H]2[C@@H](O)CCN2C[C@H]1O | – | – | – | – | – | – | 8 µM | – | – | – | – | – | – | – | – | – | – | – | – | –
O[C@@H]1[C@H](O)[C@H]2[C@@H](O)CN2C[C@H]1O [(3R,4S,5R,6R,7S)-3,4,5,7-TETRAHYDROXYCONIDINE] | 7.8% | 0% | 532 µM | 1.8% | 9% | 0% | – | 2% | 0% | 13.8% | 3.5% | 43.4% | 47.3% | – | 2% | 30.3% | 31.1% | 18.9% | 31.3% | IC50 [10]: 418 µM
OC[C@H]1NC[C@@H](O)[C@H](O)[C@@H]1O | 7.4% | 0% | – | 1.8% | 2.1% | 1.4% | – | – | 0% | 7.2% | 20.5% | 19.9% | 19.1% | 44.6% | 2.1% | 24.2% | 18.8% | 10.9% | 5% | IC50 [16]: 194 µM; inhibition (Rhizopus): 7%
O[C@H]1[C@H](O)[C@@H](O)CN2CC[C@H](O)[C@H]12 [CASTANOSPERMINE] | – | – | – | – | – | – | 8 µM | – | – | – | – | – | – | – | – | – | – | – | – | –
O[C@H]1CCCN2C[C@H](O)[C@H]12 | 0% | 13.2% | 243 µM | 0% | 1% | 1.6% | 930 µM | 0% | 0% | 0% | 8.4% | 14% | – | 32.2% | – | 14.3% | 0% | 9.7% | – | IC50 (Alpha-glucosidase): 307 µM; IC50 [4]: 117 µM
